{"source": "patent US20070021421A1", "about": "(priority 2005, published 2007)", "key": {"mice": {"tested_on": "mice", "conditions": "cited from earlier work"}, "C57BL/6J mice": {"tested_on": "C57BL/6J mice", "from_the_text": "Since PD, HD, and ALS share aspects of pathogenesis and pathology of motor dysfunction, gait dynamics were also studied in the SOD1 G93A transgenic mouse model of ALS (Gurney et al. Science 1994, 264: 1772-1775) to compare gait variability in mouse models of basal ganglia disease to a mouse model of motor neuron disease. Male C57BL/6J mice (7-8 weeks; ˜22 gm) were purchased from The Jackson Laboratory (Bar Harbor, Me.). Mice transgenic for the mutated human SOD1 G93A (TgN[SOD1-G93A]lGur) (SOD1 G93A) and wild-type human SOD1 (TgN[SOD1]2Gur) (wild-type controls) were purchased from The Jackson Laboratory (Bar Harbor, ME) when the mice were ˜7.5 weeks old. Animals were maintained on a 12-hour light: 12-hour dark schedule with ad libitum access to food and water. Handling and care of mice were consistent with federal guidelines and approved institutional protocols.\nMPTP. A mouse model of PD was generated in the following manner. The dopaminergic neurotoxin 1-methyl-4-phenyl-1,2,3,6-tetrahydropyridine (MPTP) (Sigma-Aldrich, St. Louis, Mo.) was dissolved in saline and was administered 30 mg/kg i.p. to 7 mice every 24 hours for 3 days (MPTP-treated mice), based on previously published studies (Colotla et al. Neurotoxicol Teratol 1990, 12: 405-407; Shimoji et al. Brain Res Mol Brain Res 2005, 134:103-108). Equivolume (0.2 ml) of saline was administered i.p. to 7 control mice every 24 hours for 3 days (saline-treated mice).\n3NP. A mouse model of HD was generated in the following manner. The mitochondrial toxin 3-nitropropionic acid (3NP) (Sigma-Aldrich, St. Louis, Mo.) was dissolved in saline and was administered 3 times to 6 mice: 25 mg/kg i.p. twice, separated by 12 hours (cumulative dose of 50 mg/kg), then 25 mg/kg 24 hours later (cumulative dose of 75 mg/kg) (3NP-treated mice). Equivolume (0.2 ml) of saline was administered i.p. according to the same schedule to 6 control mice.\n(§1) Gait dynamics were recorded using ventral plane videography, as previously described (Kale et al. Alcohol Clin Exp Res 2004, 28: 1839-1848; Hampton et al. Physiol Behav 2004, 82: 381-389). Briefly, a motor-driven treadmill with a transparent treadmill belt was built. A high-speed digital video camera was mounted below the transparent treadmill belt. An acrylic compartment, ˜5 cm wide by ˜25 cm long, the length of which was adjustable, was mounted on top of the treadmill to maintain the mouse that was walking on the treadmill belt within the view of the camera. Digital video images of the underside of mice were collected at 80 frames per second. Accordingly, each image obtained represented a 12.5 ms time interval; and the paw area of each image indicated the temporal placement of the paw relative to the treadmill belt. The color images were converted to their binary matrix equivalents, and the areas (in pixels) of the approaching or retreating paws relative to the belt and camera were calculated throughout each stride. Plotting the area of each digital paw print (paw contact area) imaged sequentially in time provided a dynamic gait signal, representing the temporal record of paw placement relative to the treadmill belt (refer to FIGS. 1A and 1B). From these digital paw print images, indices of gait and gait variability were determined. Each gait signal for each limb comprised a stride duration (stride time), which included the stance duration when the paw of a limb was in contact with the walking surface, plus the swing duration when the paw of the same limb was not in contact with the walking surface. Stance duration was further subdivided into braking duration (increasing paw contact area over time) and propulsion duration (decreasing paw contact area over time) (refer to FIG. 1B).\nStride frequency was calculated by counting the number of gait signals over time. Stride length was calculated from the equation: speed=stride frequency X stride length."}, "ALS patients": {"tested_on": "ALS patients", "conditions": "cited from earlier work"}, "SOD1 G93A mice": {"tested_on": "SOD1 G93A mice", "assay": "Propranolol in drinking water of the SOD1 G93A mouse model of ALS (gait, walking ability, survival, body weight)", "format": "in vivo", "from_the_text": "as §1, with “Briefly,” for “Gait dynamics were recorded using ventral plane videography, as previously described (Kale et al. Alcohol Clin Exp Res 2004, 28: 1839-1848; Hampton et al. Physiol Behav 2004, 82: 381-389). Briefly,”, “Accordingly, each image obtained represented a 12.5 ms time interval; and the paw area of each image indicated the temporal placement of the paw relative to the treadmill belt.” left out\nStride frequency was calculated by counting the number of gait signals over time. Stride length was calculated from the equation: speed=stride frequency X stride length. To obtain stance widths and paw placement angles at full stance, ellipses were fitted to the paws, and the centers, vertices, and major axes of the ellipses were determined. Forelimb and hind limb stance widths were calculated as the perpendicular distance between the major axes of the left and right paw images during peak stance. Gait data were collected and pooled from both the left and right forelimbs, and the left and right hind limbs.\nAccordingly, five SOD1 G93A mice were treated with propranolol, the drug having been added to their drinking water beginning at six weeks of age."}, "rats": {"tested_on": "rats", "conditions": "MPTP 3 mg/kg; rats (Tsai et al.); cited from earlier work"}, "[1]": {"conditions": "cumulative dose of 560 mg/kg of 3NP"}, "[2]": {"conditions": "3NP 75 mg/kg cumulative dose, 34 cm/s, n=3"}, "[3]": {"conditions": "3NP 75 mg/kg cumulative dose, mice that could walk"}, "[4]": {"conditions": "3NP 75 mg/kg cumulative, two mice with hind limb gait failure, forelimb stepping only"}, "[5]": {"conditions": "after 2nd administration of 3NP (50 mg/kg cumulative)"}, "[6]": {"conditions": "MPTP 90 mg/kg cumulative dose, 34 cm/s"}, "[7]": {"conditions": "MPTP after 3 treatments, 34 cm/s"}, "[8]": {"conditions": "MPTP, 3 administrations of 30 mg/kg, 34 cm/s"}}, "note": "“Also recorded” adds a separate entry of the source. Like-named read-outs stand apart in the source and are kept apart here."}
{"smiles": "O=C(O)CC[N+](=O)[O-]", "note": "[3NP, 3-nitropropionic acid]", "values": [{"measurement": "forelimb stride length", "setting": "mice; [1]", "result": "comparable to saline-treated mice"}, {"measurement": "hind limb stride length", "setting": "mice; [1]", "result": "shortened"}, {"measurement": "stride length of forelimbs and hind limbs", "setting": "mice; cumulative dose of 3NP 340 mg/kg", "result": "no differences"}, {"measurement": "stride length", "setting": "C57BL/6J mice; 3NP 75 mg/kg cumulative dose i.p., 34 cm/s, n=3 mice that could walk", "result": "7.3 ± 0.1", "unit": "cm"}, {"measurement": "% Stance Duration", "setting": "C57BL/6J mice; [2]", "result": "59.4±2.3", "unit": "%"}, {"measurement": "% Swing Duration", "setting": "C57BL/6J mice; [2]", "result": "40.6±2.3", "unit": "%"}, {"measurement": "Forelimb Paw Placement Angle", "setting": "C57BL/6J mice; [2]", "result": "3.5 ± 1.1", "unit": "°"}, {"measurement": "Forelimb Stance Width", "setting": "C57BL/6J mice; [2]", "result": "1.7 ± 0.1", "unit": "cm"}, {"measurement": "Hind limb Paw Placement Angle", "setting": "C57BL/6J mice; [2]", "result": "15.2±1.0", "unit": "°"}, {"measurement": "Hind limb Stance Width", "setting": "C57BL/6J mice; [2]", "result": "2.8±0.2", "unit": "cm"}, {"measurement": "Stride Duration", "setting": "C57BL/6J mice; [2]", "result": "217 ± 5", "unit": "ms"}, {"measurement": "Stride Frequency", "setting": "C57BL/6J mice; [2]", "result": "4.9 ± 0.1", "unit": "Hz"}, {"measurement": "percentage of stance duration spent in propulsion (propulsion/stance) of the hind limbs", "setting": "C57BL/6J mice; [2]", "result": "45.2±2.5", "unit": "%"}, {"measurement": "CV of forelimb stance width", "setting": "C57BL/6J mice; [3]", "result": "17.3±2.4", "unit": "%"}, {"measurement": "CV of forelimb stride length", "setting": "C57BL/6J mice; [3]", "result": "17.9±1.6", "unit": "%"}, {"measurement": "Stance width variability of the forelimbs", "setting": "C57BL/6J mice; [3]", "result": "0.31±0.04", "unit": "cm"}, {"measurement": "Hind limb stride length variability and hind limb stance width variability", "setting": "C57BL/6J mice; 3NP 75 mg/kg cumulative dose, mice that could walk, vs saline-treated mice", "result": "not different"}, {"measurement": "Stride length variability of the forelimbs", "setting": "C57BL/6J mice; 3NP 75 mg/kg cumulative dose, three mice that could walk", "result": "1.31±0.09", "unit": "cm"}, {"measurement": "stance duration (forelimbs)", "setting": "C57BL/6J mice; [4]", "result": "133 ± 5", "unit": "ms"}, {"measurement": "stride frequency (forelimbs)", "setting": "C57BL/6J mice; [4]", "result": "5.0±0.1", "unit": "Hz"}, {"measurement": "stride length of forelimbs", "setting": "C57BL/6J mice; [4]", "result": "7.1±0.1", "unit": "cm"}, {"measurement": "Stride length, stride frequency, stance duration, and swing duration", "setting": "C57BL/6J mice; after 1st and 2nd administrations of 25 mg/kg 3NP", "result": "not affected"}, {"measurement": "CV of forelimb stance width", "setting": "C57BL/6J mice; [5]", "result": "15.0±1.2", "unit": "%"}, {"measurement": "Stance width variability of the forelimbs", "setting": "C57BL/6J mice; [5]", "result": "0.28±0.01", "unit": "cm"}, {"measurement": "stride length variability and stance width variability of the hind limbs", "setting": "C57BL/6J mice; [5]", "result": "Neither stride length variability nor stance width variability of the hind limbs was affected"}, {"measurement": "paw placement angle of the hind limbs", "setting": "C57BL/6J mice; after 2nd administration of 3NP (cumulative dose of 50 mg/kg), n=6", "result": "16.6±1.2", "unit": "°"}, {"measurement": "3NP-treated mice that could not walk on the treadmill belt", "setting": "C57BL/6J mice; after 3rd administration (75 mg/kg cumulative dose), 34 cm/s, 6 mice", "result": "half"}, {"measurement": "effect of aggressive doses", "setting": "C57BL/6J mice; aggressive (higher) doses of 3NP, data not shown", "result": "high mortality or the inability of the mice to walk at all on the treadmill belt"}]}
{"smiles": "Nc1nc2ccc(OC(F)(F)F)cc2s1", "note": "[Riluzole]", "values": [{"measurement": "side effects", "setting": "ALS patients", "result": "causes liver damage"}]}
{"smiles": "CC(C)NCC(O)COc1cccc2ccccc12", "note": "(centres unmarked) [propranolol]", "values": [{"measurement": "increase in paw placement angle variability with disease progression", "setting": "SOD1 G93A mice; age 12 weeks through 18 weeks", "result": "blunted or prevented; also recorded: prevented or diminished"}, {"measurement": "extent of gait disturbances", "setting": "SOD1 G93A mice; propranolol in drinking water from age ~42 days, five mice", "result": "mitigated and delayed"}, {"measurement": "stride length", "setting": "SOD1 G93A mice; propranolol in drinking water, vs longer strides with untreated tap water", "result": "more normal"}, {"measurement": "body weight", "setting": "SOD1 G93A mice; relative to tap water-treated control mice, FIG. 8", "result": "reduction in body weight"}, {"measurement": "mice that could successfully walk on a moving treadmill belt", "setting": "SOD1 G93A mice; ~16 weeks of age, tap water controls one out of five", "result": "three out of five"}, {"measurement": "mice surviving", "setting": "SOD1 G93A mice; ~age 17 weeks, five mice per group, tap water controls one", "result": 3}]}
{"smiles": "CN1CC=C(c2ccccc2)CC1", "note": "[MPTP, 1-methyl-4-phenyl-1,2,3,6-tetrahydropyridine]", "values": [{"measurement": "stride length", "setting": "rats", "result": "significantly reduce stride length"}, {"measurement": "Forelimb Paw Placement Angle", "setting": "C57BL/6J mice; [6]", "result": "2.6 ± 0.4", "unit": "°"}, {"measurement": "Forelimb Stance Width", "setting": "C57BL/6J mice; [6]", "result": "1.6 ± 0.1", "unit": "cm"}, {"measurement": "Hind limb Paw Placement Angle", "setting": "C57BL/6J mice; [6]", "result": "10.8 ± 1.3", "unit": "°"}, {"measurement": "Hind limb Stance Width", "setting": "C57BL/6J mice; [6]", "result": "2.2 ± 0.1", "unit": "cm"}, {"measurement": "Stride Duration", "setting": "C57BL/6J mice; MPTP 90 mg/kg cumulative dose, 34 cm/s, n=7", "result": "194 ± 1", "unit": "ms"}, {"measurement": "% Stance Duration", "setting": "C57BL/6J mice; MPTP 90 mg/kg cumulative dose, 34 cm/s, stance/stride", "result": "55.9 ± 1.1", "unit": "%"}, {"measurement": "% Swing Duration", "setting": "C57BL/6J mice; MPTP 90 mg/kg cumulative dose, 34 cm/s, swing/stride", "result": "44.1 ± 1.1", "unit": "%"}, {"measurement": "CV of forelimb stance width", "setting": "C57BL/6J mice; [7]", "result": "16.7±1.3", "unit": "%"}, {"measurement": "CV of hind limb stance width", "setting": "C57BL/6J mice; [7]", "result": "9.1±1.1", "unit": "%"}, {"measurement": "Stance width variability of the forelimbs", "setting": "C57BL/6J mice; [7]", "result": "0.26±0.01", "unit": "cm"}, {"measurement": "Stance width variability of the hind limbs", "setting": "C57BL/6J mice; [7]", "result": "0.20±0.02", "unit": "cm"}, {"measurement": "coefficient of variation (CV) of forelimb stride length", "setting": "C57BL/6J mice; [7]", "result": "13.6±0.8", "unit": "%"}, {"measurement": "CV of hind limb stride length", "setting": "C57BL/6J mice; MPTP after 3 treatments, 34 cm/s, NS vs saline", "result": "10.0±1.5", "unit": "%"}, {"measurement": "Stride length variability of the forelimbs", "setting": "C57BL/6J mice; MPTP after 3 treatments, standard deviation, 34 cm/s", "result": "0.91±0.04", "unit": "cm"}, {"measurement": "Stride length variability of the hind limbs", "setting": "C57BL/6J mice; MPTP after 3 treatments, vs saline-treated mice", "result": "not different"}, {"measurement": "stance duration of the forelimbs", "setting": "C57BL/6J mice; [8]", "result": "116 ± 2", "unit": "ms"}, {"measurement": "swing duration of the hind limbs", "setting": "C57BL/6J mice; [8]", "result": "92 ± 3", "unit": "ms"}]}
